Source: PMC6155021, “Ancient and modern anticonvulsants act synergistically in a KCNQ potassium channel binding pocket” (Nature Communications, 2018)

How the values were obtained:
KCNQ5 = KCNQ5 (Homo sapiens, UniProt Q9NR82); experiment: cell-based; format: cell-based
Source text: (§1) cRNA transcripts encoding human KCNA1, KCNQ1, KCNQ2, KCNQ3, KCNQ4, or KCNQ5 were generated by in vitro transcription using the T7 polymerase message machine kit (Thermo Fisher Scientific), after vector linearization, from cDNA sub-cloned into plasmids incorporating X. laevis β-globin 5′ and 3′ UTRs flanking the coding region to enhance translation and cRNA stability. cRNA was quantified by spectrophotometry. Mutant cDNAs were generated by site-directed mutagenesis using a QuikChange kit according to manufacturer’s protocol (Stratagene, San Diego, CA) and corresponding cRNAs prepared as above. Defolliculated stage V and VI X. laevis oocytes (Ecocyte Bioscience, Austin, TX) were injected with Kv channel α subunit cRNAs (10 ng total per oocyte). Oocytes were incubated at 16 °C in Barth’s saline solution (Ecocyte) containing penicillin and streptomycin, with daily washing, for 3–5 days prior to two-electrode voltage-clamp (TEVC) recording.
(§2) Oocytes were placed in a small-volume oocyte bath (Warner) and viewed with a dissection microscope. Chemicals were sourced from Sigma. Bath solution was (in mM): 96 NaCl, 4 KCl, 1 MgCl2, 1 CaCl2, 10 HEPES (pH 7.6). […] MTX (DMSO), sorbic acid (ethanol), and glutaconic acid (molecular grade H2O) were stored at −20 °C as 1 M stocks. Oleamide was stored as a 1 mM stock in ethanol at 4 °C. Palmitic acid was conjugated with bovine serum albumin as a 1 mM stock and stored at −20 °C. All compounds were diluted to working concentrations each experimental day. All compounds were introduced to the recording bath via gravity perfusion at a constant flow of 1 ml/min for 3 min prior to recording. Pipettes were of 1–2 MΩ resistance when filled with 3 M KCl. Currents were recorded in response to pulses between −80 and +40 mV at 20 mV intervals, or a single pulse to +40 mV, from a holding potential of −80 mV, to yield current–voltage relationships, current magnitude, and for quantifying activation rate. TEVC data analysis was performed with Clampfit10.2 (Molecular Devices) and Graphpad Prism software (GraphPad, San Diego, CA, USA); values are stated as mean ± SEM. Normalized tail currents were plotted versus prepulse voltage and fitted with a single Boltzmann function:1 g=A1-A2/1+expV12-Vy+A2, where g is the normalized tail conductance, A1 is the initial value at −∞, A2 is the final value at +∞, V1/2 is the half-maximal voltage of activation, and Vs the slope factor. Activation and deactivation kinetics were fitted with single-exponential functions.

KCNQ3* (KCNQ3-A315T) = KCNQ3* (KCNQ3-A315T) (Homo sapiens, UniProt O43525, A315T); experiment: cell-based; format: cell-based
Source text: as §1, §2

Chain of KCNQ3* (KCNQ3-A315T) (O43525 whole entry A315T, looked up): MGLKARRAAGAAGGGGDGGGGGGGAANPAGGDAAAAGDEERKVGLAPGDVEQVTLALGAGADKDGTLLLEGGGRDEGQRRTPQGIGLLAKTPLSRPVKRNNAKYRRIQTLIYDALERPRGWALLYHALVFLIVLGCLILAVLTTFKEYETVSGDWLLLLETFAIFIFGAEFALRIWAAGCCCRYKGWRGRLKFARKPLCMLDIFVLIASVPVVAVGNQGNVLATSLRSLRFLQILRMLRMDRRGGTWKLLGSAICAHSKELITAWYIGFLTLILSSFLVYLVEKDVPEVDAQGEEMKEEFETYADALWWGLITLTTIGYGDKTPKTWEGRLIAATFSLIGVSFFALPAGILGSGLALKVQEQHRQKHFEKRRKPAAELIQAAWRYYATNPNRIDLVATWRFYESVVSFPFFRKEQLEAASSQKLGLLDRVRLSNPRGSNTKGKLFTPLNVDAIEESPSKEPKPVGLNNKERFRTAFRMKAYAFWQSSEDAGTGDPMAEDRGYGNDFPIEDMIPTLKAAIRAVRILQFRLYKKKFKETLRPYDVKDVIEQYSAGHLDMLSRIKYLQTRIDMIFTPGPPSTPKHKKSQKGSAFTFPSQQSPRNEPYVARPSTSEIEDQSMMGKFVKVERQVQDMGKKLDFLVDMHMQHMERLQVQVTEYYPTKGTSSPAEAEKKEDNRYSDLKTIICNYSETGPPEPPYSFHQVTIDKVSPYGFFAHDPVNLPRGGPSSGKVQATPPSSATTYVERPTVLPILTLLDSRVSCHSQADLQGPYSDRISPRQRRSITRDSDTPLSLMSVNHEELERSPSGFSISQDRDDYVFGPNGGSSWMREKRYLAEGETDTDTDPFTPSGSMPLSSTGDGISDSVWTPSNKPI

CC(=O)c1c(O)c(C)c(O)c(Cc2c(O)c3c(c(C(=O)/C=C/c4ccccc4)c2O)OC(C)(C)C=C3)c1O [MTX, mallotoxin]
EC50 (KCNQ5): 67.1 µM
KCNQ5 current increase at −60 mV (KCNQ5; 100 µM): eight-fold
Non-normalized tail current V0.5 (KCNQ5; KCNQ5, 1 µM): -49.3 ± 1.2 mV
Normalized tail current V0.5 (KCNQ5; KCNQ5, 1 µM): -49.9 ± 2.1 mV
Slope (KCNQ5; KCNQ5, 1 µM): 8.3 ± 2.1 mV
Non-normalized tail current V0.5 (KCNQ5; KCNQ5, 3 µM): -51.7 ± 1.8 mV
Normalized tail current V0.5 (KCNQ5; KCNQ5, 3 µM): -51.1 ± 2.3 mV
Slope (KCNQ5; KCNQ5, 3 µM): 8.5 ± 2.1 mV
Non-normalized tail current V0.5 (KCNQ5; KCNQ5, 10 µM): -51.9 ± 0.8 mV
Normalized tail current V0.5 (KCNQ5; KCNQ5, 10 µM): -51.5 ± 3.2 mV
Slope (KCNQ5; KCNQ5, 10 µM): 8.6 ± 2.9 mV
Non-normalized tail current V0.5 (KCNQ5; KCNQ5, 30 µM): -55.9 ± 0.8 mV
Normalized tail current V0.5 (KCNQ5; KCNQ5, 30 µM): -55.6 ± 3.8 mV
Slope (KCNQ5; KCNQ5, 30 µM): 8.8 ± 3.6 mV
shift in midpoint voltage of activation (KCNQ5; KCNQ5, 30 µM): −14 mV
Non-normalized tail current V0.5 (KCNQ5; KCNQ5, 100 µM): -71.1 ± 2.6 mV
Normalized tail current V0.5 (KCNQ5; KCNQ5, 100 µM): -71.6 ± 2.1 mV
EC50 (KCNQ3* (KCNQ3-A315T)): 13 µM
Non-normalized tail current V0.5 (KCNQ3* (KCNQ3-A315T); KCNQ3*, 1 µM): -56.1 ± 4.2 mV
Normalized tail current V0.5 (KCNQ3* (KCNQ3-A315T); KCNQ3*, 1 µM): -56.4 ± 1.6 mV
τ act, -40 mV (KCNQ3* (KCNQ3-A315T); KCNQ3*, 1 µM): 552 ± 98 ms
τ deact, -80 mV (KCNQ3* (KCNQ3-A315T); KCNQ3*, 1 µM): 290 ± 51 ms
Non-normalized tail current V0.5 (KCNQ3* (KCNQ3-A315T); KCNQ3*, 3 µM): -57.4 ± 5.3 mV
Normalized tail current V0.5 (KCNQ3* (KCNQ3-A315T); KCNQ3*, 3 µM): -57.3 ± 1.4 mV
τ act, -40 mV (KCNQ3* (KCNQ3-A315T); KCNQ3*, 3 µM): 489 ± 55 ms
τ deact, -80 mV (KCNQ3* (KCNQ3-A315T); KCNQ3*, 3 µM): 263 ± 29 ms
Non-normalized tail current V0.5 (KCNQ3* (KCNQ3-A315T); KCNQ3*, 10 µM): -59.5 ± 4.2 mV
Normalized tail current V0.5 (KCNQ3* (KCNQ3-A315T); KCNQ3*, 10 µM): -59.5 ± 1.0 mV
τ act, -40 mV (KCNQ3* (KCNQ3-A315T); KCNQ3*, 10 µM): 421 ± 26 ms
τ deact, -80 mV (KCNQ3* (KCNQ3-A315T); KCNQ3*, 10 µM): 244 ± 17 ms
Non-normalized tail current V0.5 (KCNQ3* (KCNQ3-A315T); KCNQ3*, 30 µM): -62.1 ± 3.9 mV
Normalized tail current V0.5 (KCNQ3* (KCNQ3-A315T); KCNQ3*, 30 µM): -62.3 ± 1.2 mV
shift in midpoint voltage of activation (KCNQ3* (KCNQ3-A315T); KCNQ3*, 30 µM): −9 mV
τ act, -40 mV (KCNQ3* (KCNQ3-A315T); KCNQ3*, 30 µM): 388 ± 20 ms
τ deact, -80 mV (KCNQ3* (KCNQ3-A315T); KCNQ3*, 30 µM): 240 ± 18 ms
Non-normalized tail current V0.5 (KCNQ3* (KCNQ3-A315T); KCNQ3*, 100 µM): -65.2 ± 3.9 mV
Normalized tail current V0.5 (KCNQ3* (KCNQ3-A315T); KCNQ3*, 100 µM): -66.2 ± 2.1 mV
τ act, -40 mV (KCNQ3* (KCNQ3-A315T); KCNQ3*, 100 µM): 403 ± 36 ms
τ deact, -80 mV (KCNQ3* (KCNQ3-A315T); KCNQ3*, 100 µM): 269 ± 30 ms
